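Interpolation was linear, between the two tested concentrations surrounding the appropriate level; five concentrations were tested over 48 hours in 96-well plates. TGI marks complete inhibition of growth.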
Key:
Test in all cases: DTP human tumour cell line panel, 48 h
DU-145 prostate = system: DU-145 prostate
HCC-2998 colon = system: HCC-2998 colon
HS 578T breast = system: HS 578T breast
M14 melanoma = system: M14 melanoma
MDA-MB-231 breast = system: MDA-MB-231 breast
NCI-H522 lung = system: NCI-H522 lung
OVCAR-8 ovarian = system: OVCAR-8 ovarian
SF-539 CNS = system: SF-539 CNS
SR leukemia = system: SR leukemia
SNB-78 CNS = system: SNB-78 CNS
XF 498 CNS = system: XF 498 CNS

Structure (SMILES)	TGI (DU-145 prostate)	TGI (HCC-2998 colon)	TGI (HS 578T breast)	TGI (M14 melanoma)	TGI (MDA-MB-231 breast)	TGI (NCI-H522 lung)	TGI (OVCAR-8 ovarian)	TGI (SF-539 CNS)	TGI (SR leukemia)	TGI (SNB-78 CNS)	TGI (XF 498 CNS)
CSc1nc(C)c2c(n1)N(c1ccc(Cl)cc1)CC2	> 100 µM	> 100 µM	> 100 µM	> 100 µM	> 100 µM	> 100 µM	> 100 µM	> 100 µM	> 100 µM		
CCc1cc2c(c3c1CCCC3=O)CC1(C2)Cc2cc(CC)c3c(c2C1)C(=O)CCC3	> 100 µM	> 100 µM	> 100 µM	> 100 µM	> 100 µM	> 100 µM	> 100 µM	> 100 µM	75.1 µM		
CC(C)=CC(=O)c1c(C(=O)O)nc2ccccc2[n+]1[O-]		> 100 µM		> 100 µM				> 100 µM	> 100 µM	> 100 µM	
O=C1C=C/C(=C/[C@H]2SSC=C[C@]23C=CC(=O)C3)C1	47.3 µM	44.7 µM	93.2 µM	> 54.7 µM	> 83.1 µM	27.7 µM	> 81 µM	61.3 µM	> 100 µM		
CC1CCCN1CCCOC(=O)c1ccc(OC2C=CCCC2)cc1 (stereo not given)	> 100 µM	64.9 µM	71.8 µM	31.6 µM	47.8 µM	54 µM	> 100 µM	74.9 µM	59.9 µM		
O=C1/C(=C/c2ccc(Cl)cc2)Oc2ccccc21	40.3 µM	> 100 µM	74.7 µM	> 100 µM	> 100 µM	34.5 µM	89.5 µM	48.8 µM	> 100 µM		
S=c1[nH]n2c(COc3cc(Cl)c(OCc4nnc5sc(=S)[nH]n45)cc3Cl)nnc2s1	> 100 µM	> 100 µM	> 100 µM	> 100 µM	> 100 µM	53.9 µM	> 100 µM	> 100 µM	> 100 µM		
Cc1ccc(NC(=O)C(=O)Cc2cccc[n+]2[O-])cc1C		> 100 µM		> 100 µM		> 100 µM	> 100 µM	> 100 µM	> 100 µM	> 100 µM	> 100 µM
O=CC1=CCC2c3[nH]c4ccccc4c3CCN2C1 (stereo not given)		253 µM				> 396 µM	> 396 µM	> 396 µM	> 396 µM		213 µM
CC(C)[C@@H]1NC(=O)[C@@H]2N=C(O[C@H]2C)[C@H](C(C)C)NC(=O)C2N=C1O[C@H]2C	> 100 µM	> 100 µM	> 100 µM	> 100 µM	> 100 µM	> 100 µM	> 100 µM	> 100 µM	> 100 µM		
CC1(Cl)CC(C)(/C=C/Cl)C(Cl)CC1Cl (stereo not given)		32 µM		31.2 µM		31.6 µM	31.3 µM	34.4 µM	44.6 µM	46.8 µM	27.4 µM
CC(C)(CN1CCCCC1)C(=O)CC(SCCS(=O)(=O)O)c1ccc(Cl)cc1 (stereo not given)	21.7 µM	26 µM	7.5 µM	9.19 µM	6.61 µM	6.29 µM	11.1 µM	4.66 µM	4.82 µM		
COc1ccc(N=Nc2c(N)nn3c(SC)c(C#N)c(N)nc23)cc1	19.3 µM	16.7 µM	6.91 µM	25.1 µM	7.02 µM	36.8 µM	11.7 µM	34.6 µM	4.59 µM		
C=CCN1C(=O)CC(=O)N(NC2=NNC3(C(=O)N2)c2ccccc2-c2ccccc23)C1=S	> 100 µM	> 100 µM	66.1 µM	> 100 µM	> 100 µM	96.3 µM	> 100 µM	> 100 µM	61.1 µM		
C/C(Nc1ccc(Cl)cc1)=C1/CCOC1=O	> 100 µM	> 100 µM	> 100 µM	> 100 µM	> 100 µM	> 100 µM	> 100 µM	> 100 µM	> 100 µM		
Cc1cc(=O)n2nc(CSc3nnc(Sc4cc(O)ccc4O)s3)sc2n1	> 100 µM	> 100 µM	> 100 µM	> 100 µM	97.4 µM	46.2 µM	> 100 µM	> 100 µM	> 100 µM		
